Values after ≈ are worked out from the molar mass of the structure shown. Active and inactive are the calls of the source. No cut-off for these calls is given here.
Legend:
[1] = system: Vero; test: Cytotoxicity against african green monkey Vero cells after 2 to 7 days by neutral red assay; assay type: cell-based; conditions: chlorocebus sabaeus
[2] = system: Plasmodium falciparum; test: Antimalarial activity against chloroquine-sensitive Plasmodium falciparum D6 after 48 hrs as LDH activity by Makler assay; assay type: functional, organism-based; conditions: D6, 48 h
[3] = system: BT-549; test: Cytotoxicity against human BT549 cells after 2 to 7 days by neutral red assay; assay type: functional, cell-based
[4] = system: KB; test: Cytotoxicity against human KB cells after 2 to 7 days by neutral red assay; assay type: functional, cell-based
[5] = system: SK-OV-3; test: Cytotoxicity against human SKOV3 cells after 2 to 7 days by neutral red assay; assay type: functional, cell-based
[6] = system: K562; test: Cytotoxicity against human K562 cells after 2 to 7 days by neutral red assay; assay type: functional, cell-based
[7] = system: Plasmodium falciparum; test: Antimalarial activity against chloroquine-resistant Plasmodium falciparum W2 after 48 hrs as LDH activity by Makler assay; assay type: functional, organism-based; conditions: W2, 48 h
[8] = system: SK-OV-3; test: Cytotoxicity against human SKOV3 cells <=10 ug/ml after 2 to 7 days by neutral red assay; assay type: functional, cell-based
[9] = system: Vero; test: Cytotoxicity against african green monkey Vero cells <=10 ug/ml after 2 to 7 days by neutral red assay; assay type: cell-based; conditions: chlorocebus sabaeus
[10] = system: KB; test: Cytotoxicity against human KB cells <=10 ug/ml after 2 to 7 days by neutral red assay; assay type: functional, cell-based
[11] = system: BT-549; test: Cytotoxicity against human BT549 cells <=10 ug/ml after 2 to 7 days by neutral red assay; assay type: functional, cell-based
[12] = system: K562; test: Cytotoxicity against human K562 cells at <=10 ug/ml after 2 to 7 days by neutral red assay; assay type: functional, cell-based
[13] = system: Plasmodium falciparum; test: Antimalarial activity against chloroquine-resistant Plasmodium falciparum W2 at <=10 ug/ml after 48 hrs as LDH activity by Makler assay; assay type: functional, organism-based
[14] = system: Plasmodium falciparum; test: Antimalarial activity against chloroquine-sensitive Plasmodium falciparum D6 at <=10 ug/ml after 48 hrs as LDH activity by Makler assay; assay type: functional, organism-based
[15] = system: Giardia intestinalis; test: Antiparasitic activity against Giardia intestinalis ATCC 30888 at <=20 ug/ml after 24 hrs by XTT assay; assay type: functional, organism-based; conditions: Giardia duodenalis
[16] = system: Crithidia fasciculata; test: Trypanocidal activity against Crithidia fasciculata ATCC 11745 at <=20 ug/ml after 48 hrs by SRB assay; assay type: functional, organism-based

## CC1=CC(=O)[C@@H](O)[C@]2(C)[C@H]3[C@]4(O)OC[C@]35[C@H]([C@@H](C)[C@H]4O)[C@@H](O)C(=O)O[C@@H]5C[C@@H]12 [GLAUCARUBOLONE]
[1]
  IC50: 1.5 µg/mL (≈ 3.8 µM)
[2]
  IC50: 0.125 µg/mL (≈ 0.317 µM)
[3]
  IC50: 0.4 µg/mL (≈ 1.01 µM)
[4]
  IC50: 1 µg/mL (≈ 2.54 µM)
[5]
  IC50: 0.8 µg/mL (≈ 2.03 µM)
[6]
  IC50: 0.6 µg/mL (≈ 1.52 µM)
[7]
  IC50: 0.2 µg/mL (≈ 0.507 µM)

## CC1=CC(=O)[C@@H](O)[C@]2(C)[C@H]3[C@@]4(O)OC[C@@]35[C@@H](C[C@@H]12)OC(=O)C[C@H]5[C@@H](C)[C@H]4O [CHAPARRINONE]
[1]
  IC50: 1.5 µg/mL (≈ 3.96 µM)
[2]
  IC50: 0.25 µg/mL (≈ 0.661 µM)
[3]
  IC50: 0.8 µg/mL (≈ 2.11 µM)
[4]
  IC50: 1.2 µg/mL (≈ 3.17 µM)
[5]
  IC50: 0.5 µg/mL (≈ 1.32 µM)
[6]
  IC50: 1.8 µg/mL (≈ 4.76 µM)
[7]
  IC50: 0.2 µg/mL (≈ 0.529 µM)

## CC1=C[C@H](O)[C@@H](O)[C@]2(C)[C@H]3[C@@]4(O)OC[C@@]35[C@@H](C[C@@H]12)OC(=O)C[C@H]5[C@@H](C)[C@H]4O [CHAPARRIN]
[8]
  Activity: inactive
[2]
  IC50: 0.25 µg/mL (≈ 0.657 µM)
[9]
  Activity: Not Active
[10]
  Activity: inactive
[11]
  Activity: inactive
[7]
  IC50: 0.35 µg/mL (≈ 0.92 µM)
[12]
  Activity: inactive

## CC1=C[C@H](O)[C@@H](O)[C@]2(C)[C@H]3[C@]4(O)OC[C@]35[C@H]([C@@H](C)[C@H]4O)[C@@H](O[C@@H]3O[C@H](CO)[C@@H](O)[C@H](O)[C@H]3O)C(=O)O[C@@H]5C[C@@H]12
[8]
  Activity: inactive
[13]
  Activity: inactive
[9]
  Activity: Not Active
[10]
  Activity: inactive
[11]
  Activity: inactive
[12]
  Activity: inactive
[14]
  Activity: inactive

## C[C@@H]1C[C@H](O)C(=O)[C@]2(C)[C@H]3[C@H](OC(=O)/C=C/c4ccc(O)cc4)C(=O)[C@H](C)[C@@H]4CC(=O)O[C@H](C[C@@H]12)[C@]34C
[8]
  Activity: inactive
[2]
  IC50: 0.92 µg/mL (≈ 1.8 µM)
[9]
  Activity: Not Active
[10]
  Activity: inactive
[15]
  Activity: inactive
[16]
  Activity: inactive
[11]
  Activity: inactive
[7]
  IC50: 0.75 µg/mL (≈ 1.47 µM)
[12]
  Activity: inactive

## C[C@@H]1C[C@H](O)C(=O)[C@]2(C)[C@H]3[C@H](O)C(=O)[C@H](C)[C@@H]4CC(=O)O[C@H](C[C@@H]12)[C@]34C [AMAROLIDE]
[8]
  Activity: inactive
[13]
  Activity: inactive
[9]
  Activity: Not Active
[10]
  Activity: inactive
[11]
  Activity: inactive
[12]
  Activity: inactive
[14]
  Activity: inactive

## CC(=O)O[C@H]1C(=O)O[C@@H]2C[C@H]3C(C)=CC(=O)[C@@H](O)[C@]3(C)[C@H]3[C@]4(O)OC[C@]32[C@@H]1[C@@H](C)[C@H]4O [HOLACANTHONE]
[1]
  IC50: 1 µg/mL (≈ 2.29 µM)
[2]
  IC50: 0.01 µg/mL (≈ 0.0229 µM)
[3]
  IC50: 0.3 µg/mL (≈ 0.687 µM)
[4]
  IC50: 0.5 µg/mL (≈ 1.15 µM)
[5]
  IC50: 0.5 µg/mL (≈ 1.15 µM)
[6]
  IC50: 1 µg/mL (≈ 2.29 µM)
[7]
  IC50: 0.012 µg/mL (≈ 0.0275 µM)

## COc1cccc2c1C(=O)c1c(O)c3c(c(O)c1C2=O)C[C@@](O)(C(=O)CO)C[C@@H]3O[C@H]1C[C@H](N)[C@H](O)[C@H](C)O1 [DOXORUBICIN]
[1]
  IC50: 1.5 µg/mL (≈ 2.76 µM)
[3]
  IC50: 0.008 µg/mL (≈ 0.0147 µM)
[4]
  IC50: 0.12 µg/mL (≈ 0.221 µM)
[5]
  IC50: 0.01 µg/mL (≈ 0.0184 µM)
[6]
  IC50: 0.035 µg/mL (≈ 0.0644 µM)

Source: ChEMBL document CHEMBL1151670, “A new quassinoid from Castela texana” (J Nat Prod, 1996)
